According to patent US6867198B2, “Agents and methods for the treatment of proliferative diseases” (Eli Lilly and Company, priority 1999, dated 2005):

Test system: HCT-116 or NCI H460 cells
Assay: Cell Growth Inhibition Assay (MTT)
Type: cell-based
Details: 72 h of drug exposure
Method: Cell Growth Inhibition Assay
The MTT assay was used to measure growth inhibitory activity (Schultz, R. M., et. al. Oncology Res. 5, 223-228, 1993). […] Basically, 1000 HCT-116 or NCI H460 cells were added per well to 96-well flat-bottom plates in 100-ul RPMI 1640 medium containing 10% dialyzed fetal bovine serum. The plates were incubated for 24 h prior to addition of test compounds. A stock solution (10 mM) was prepared in DMSO and serially diluted in medium. Compound dilutions were added to triplicate wells, and the plates were incubated for 72 hours. […].

| SMILES | cell growth inhibition |
| --- | --- |
| O=C1NC(=O)c2c1c1c3ccccc3[nH]c1c1c2c2cccc3c2n1CCC3 [Example 52, 11H, 12H, 14H-pyrrolo[3,4-c]quinolino[8′,8a′,1′:3,2,1]-pyrrolo[2,3-a]carbazole-5,7-dione] | inhibit cell growth |

Biological target: T1, cyclin D1-cdk4 (Homo sapiens, UniProt P11802)
Assay: Assay of Cyclin D1-cdk4 Kinase Activity with the Rb21 Protein as Substrate
Type: biochemical
Details: Rb21 protein 5 ug as substrate, 30 uM ATP, 60 minutes at room temperature
Method: Assay of Cyclin D1-cdk4 Kinase Activity with the Rb21 Protein as Substrate
The cyclin D1-cdk4 kinase activity of a compound was assayed by preparing a 100 ul reaction at the following concentrations: 20 mM Hepes pH 7.0, 10 mM MgCl2, 30 uM ATP, 5 ug of Rb21 protein (Santa Cruz Biotech, Catalog #sc-4112), 1.0 uCi of γ-^33P-ATP, 1.09 ug of cyclin D-cdk4 enzyme, 4% DMSO, and various concentrations of inhibitor. The reaction was incubated at room temperature (about 74° F.) for 60 minutes, and then terminated by the addition of 100 ul of 25% trichloroacetic acid. Next, the reaction was filtered through a Millipore Multiscreen-FC Plate—Catalog number MAFC NOB 10, and the plate was washed 2 times with 320 ul each of 10% trichloroacetic acid, followed by the addition of 100 ul of scintillation fluid and quantitation on a Packard Instruments, Top Count, scintillation counter.

T1 sequence (P11802 whole entry): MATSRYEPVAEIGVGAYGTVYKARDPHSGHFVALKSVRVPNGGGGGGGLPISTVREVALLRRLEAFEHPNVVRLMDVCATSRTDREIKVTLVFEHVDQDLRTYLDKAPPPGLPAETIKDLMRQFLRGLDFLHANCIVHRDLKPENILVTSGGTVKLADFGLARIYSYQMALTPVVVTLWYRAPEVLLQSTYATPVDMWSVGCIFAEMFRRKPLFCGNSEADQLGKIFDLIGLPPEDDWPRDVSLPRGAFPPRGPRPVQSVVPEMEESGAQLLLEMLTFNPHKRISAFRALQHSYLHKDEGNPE
T1 sequence (P24385 whole entry partner): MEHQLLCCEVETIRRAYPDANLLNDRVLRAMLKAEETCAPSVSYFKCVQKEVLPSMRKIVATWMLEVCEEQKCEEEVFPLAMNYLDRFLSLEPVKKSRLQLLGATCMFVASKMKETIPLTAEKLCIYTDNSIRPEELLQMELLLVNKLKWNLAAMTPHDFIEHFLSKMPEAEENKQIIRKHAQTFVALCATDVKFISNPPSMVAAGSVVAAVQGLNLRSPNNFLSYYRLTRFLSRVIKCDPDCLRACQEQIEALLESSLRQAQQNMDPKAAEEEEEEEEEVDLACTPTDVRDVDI

| IC50 [nM] | SMILES |
| --- | --- |
| 811 | O=C1NC(=O)C(c2cn3c4c(cccc24)CC(CO)C3)=C1c1c[nH]c2ccccc12 (stereo not drawn) [drawing 239] |
| 709 | O=C1NC(=O)C(c2cn3c4c(cccc24)CCC3)=C1c1c[nH]c2ccccc12 [drawing 238] |
| 65 | O=C1NC(=O)c2c1c1c3ccccc3[nH]c1c1c2c2cccc3c2n1CCC3 [drawing 228] |
| 180 | CC1Cn2c3c(cccc3c3c4c(c5c6ccccc6[nH]c5c32)C(=O)NC4=O)CN1C(=O)[C@H](C)N (stereo partly drawn) [drawing 233] |
| 202 | CC1(C)CCn2c3c1cc(F)cc3c1c3c(c4c5ccccc5[nH]c4c12)C(=O)NC3=O [drawing 234] |
| 30.1 | CC1(C)Cc2cccc3c4c5c(c6c7ccc(CN)cc7[nH]c6c4n(c23)C1)C(=O)NC5=O [drawing 235] |
| 15.5 | CN1Cc2cccc3c4c5c(c6c7ccccc7[nH]c6c4n(c23)C1)C(=O)NC5=O [drawing 237] |
| 66.6 | CC(C)(C)OC[C@H]1Cn2c3c(cccc3c3c4c(c5c6ccccc6[nH]c5c32)C(=O)NC4=O)CN1 [drawing 229] |
| 11.1 | O=C1NC(=O)c2c1c1c3ccc(CN4CCCC4)cc3[nH]c1c1c2c2cccc3c2n1CCC3 [drawing 236] |

Test system: protein kinase C
Assay: not given
Details: cited from earlier work

| SMILES | concentration inhibiting protein kinase C [μM/L] |
| --- | --- |
| CN1CC[C@H](c2c(O)cc(O)c3c(=O)cc(-c4ccccc4Cl)oc23)[C@H](O)C1 [Flavopiridol] | ≥ 10 |

Test system: protein kinase A
Assay: not given
Details: cited from earlier work

| SMILES | concentration inhibiting protein kinase A [μM/L] |
| --- | --- |
| CN1CC[C@H](c2c(O)cc(O)c3c(=O)cc(-c4ccccc4Cl)oc23)[C@H](O)C1 [Flavopiridol] | ≥ 10 |

Test system: HCT-116 and NCI H460 cell lines
Assay: Cell Cycle Analysis Using Flow Cytometry
Type: cell-based
Details: compound at 1×IC50 and 3×IC50, 24 hours, DNA histogram analysis
Method: Cell Cycle Analysis Using Flow Cytometry
The HCT-116 and NCI H460 cell lines were seeded in 75 cm^2 flasks at 5×10^5 cells/25 ml RPMI 1640 medium containing 10% dialyzed fetal bovine serum. They were incubated for 24 hours. Compound is then added at 1×IC50 and 3×IC50 (determined from above section “growth inhibition studies”) and incubated for an additional 24 hours. The cells were subsequently harvested and the protocol (Robinson, J. P. and Darzynkiewicz, Z. Current Protocols in Cytometry. 1997) for staining was followed. DNA histogram analysis was performed using ModFit LT (Verity House).

| SMILES | cell cycle arrest |
| --- | --- |
| O=C1NC(=O)c2c1c1c3ccccc3[nH]c1c1c2c2cccc3c2n1CCC3 [Example 52, 11H, 12H, 14H-pyrrolo[3,4-c]quinolino[8′,8a′,1′:3,2,1]-pyrrolo[2,3-a]carbazole-5,7-dione] | arrest cells in the G1 phase of the cell cycle |

Test system: Ser-780 pRb phosphorylation in HCT116 cells
Assay: Inhibition of Rb Phosphorylation Assay
Type: cell-based, Human
Details: compound at 1×, 2× and 3×IC50, 24 hours, immunoblot
Method: Inhibition of Rb Phosphorylation Assay
Human HCT116 colon carcinoma cell line was purchased from American Tissue Culture Collection (Rockville, Md.) and maintained as monolayer in RPMI-1640 with L-Glutamine and 25 mM HEPES supplemented with 10% fetal bovine serum in a 37° C. incubator with a 10% CO2 atmosphere. The detection of mycoplasm in cultured cells was performed using Mycoplasma Rapid Detection System (TaKaRa Shuzo Co. Ltd., Shiga, Japan) every 2-3 months and the cells were found consistently negative throughout these experiments. The Rb phosphorylation assay was done be plating 4×10^5 cells/well in 6-well plates. […] At the end of the incubation period the mediumj was removed and the cells were washed twice with cold PBS containing 1 mM sodium orthovanadate (Na3VO4). […] Protein concentration was determined by the Bio-Rad DC protein assay (Bio-Rad, Hercules, Calif.). […] Proteins were detected by capturing image of the membrane using Quantity One Software on a Fluor-S multi-Imager (Bio-Rad, Hercules, Calif.) in a linear range. Specific bands were quantified using Quantity One Software. […] Results are expressed as a percentage inhibition of Ser-780 pRb phosphorylation in drug treated cells versus control DMSO treated cells.

| SMILES | inhibition of Ser-780 pRb phosphorylation |
| --- | --- |
| O=C1NC(=O)c2c1c1c3ccccc3[nH]c1c1c2c2cccc3c2n1CCC3 [Example 52, 11H, 12H, 14H-pyrrolo[3,4-c]quinolino[8′,8a′,1′:3,2,1]-pyrrolo[2,3-a]carbazole-5,7-dione] | inhibit Rb (retinoblastoma protein) phosphorylation |

Biological target: T1, cyclin D1-cdk4
Assay: Assay of Cyclin D1-cdk4 Kinase Activity with the ING Peptide as Substrate
Type: biochemical
Details: ING peptide 200 uM as substrate, 300 uM ATP, 60 minutes at room temperature
Method: Assay of Cyclin D1-cdk4 Kinase Activity with the ING Peptide as Substrate
The cyclin D1-cdk4 kinase activity of a compound was assayed by preparing a 100 ul reaction at the following concentrations: 35 mM Hepes pH 7.0, 10 mM MgCl2, 300 uM ATP, 200 uM ING peptide, 1.0 uCi of γ-^33P-ATP, 4.34 ug of cyclin D-cdk4 enzyme, 4% DMSO, and various concentrations of inhibitor. The reaction was incubated at room temperature (about 74° F.) for 60 minutes, and then terminated by the addition of 100 ul of 10% phosphoric acid. Next, the reaction was filtered through a Millipore Multiscreen-PH Plate—Catalog number MAPH NOB 10, and the plate was washed 2 times with 320 ul each of 0.5% phosphoric acid, followed by the addition of 100 ul of scintillation fluid and quantitation on a Packard Instruments, Top Count, scintillation counter.

| SMILES | IC50 [nM] |
| --- | --- |
| CC(C)(C)OC[C@H]1Cn2c3c(cccc3c3c4c(c5c6ccccc6[nH]c5c32)C(=O)NC4=O)CN1 [drawing 213] | 116 |
| CC1(C)Cc2cccc3c(C4=C(c5c[nH]c6cc(CN)ccc56)C(=O)NC4=O)cn(c23)C1 | 793 |
| O=C1NC(=O)c2c1c1c3ccccc3[nH]c1c1c2c2cccc3c2n1C(CO)CC3 (stereo not drawn) | 78.7 |
| O=C1NC(=O)C(c2cn3c4c(cccc24)CCC3CO)=C1c1c[nH]c2ccccc12 (stereo not drawn) | 151 |
| O=C1NC(=O)c2c1c1c3ccccc3[nH]c1c1c2c2cccc3c2n1CCC3CO (stereo not drawn) | 64.5 |
| CC1(C)CCn2cc(C3=C(c4c[nH]c5ccccc45)C(=O)NC3=O)c3cc(F)cc1c32 | 1560 |
| O=C1NC(=O)c2c1c1c3ccccc3[nH]c1c1c2c2cccc3c2n1CCC3 [drawing 212] | 105 |
| CN1Cc2cccc3c(C4=C(c5c[nH]c6ccccc56)C(=O)NC4=O)cn(c23)C1 | 455 |
| O=C1NC(=O)c2c1c1c3ccccc3[nH]c1c1c2c2cccc3c2n1CC(CO)C3 (stereo not drawn) | 127 |

The remaining lines, values ahead:

| IC50 [nM] | SMILES |
| --- | --- |
| 367 | O=C1NC(=O)C(c2cn3c4c(cccc24)CC(CO)C3)=C1c1c[nH]c2ccccc12 (stereo not drawn) [drawing 223] |
| 173 | CC1(C)Cc2cccc3c4c5c(c6c7ccc(CN)cc7[nH]c6c4n(c23)C1)C(=O)NC5=O [drawing 219] |
| 466 | CC1(C)CCn2c3c1cc(F)cc3c1c3c(c4c5ccccc5[nH]c4c12)C(=O)NC3=O [drawing 218] |
| 51.3 | O=C1NC(=O)c2c1c1c3ccc(CN4CCCC4)cc3[nH]c1c1c2c2cccc3c2n1CCC3 [drawing 220] |
| 786 | O=C1NC(=O)C(c2cn3c4c(cccc24)CCC3)=C1c1c[nH]c2ccccc12 [drawing 222] |
| 269 | CC1Cn2c3c(cccc3c3c4c(c5c6ccccc6[nH]c5c32)C(=O)NC4=O)CN1C(=O)[C@H](C)N (stereo partly drawn) [drawing 217] |
| 36.8 | CN1Cc2cccc3c4c5c(c6c7ccccc7[nH]c6c4n(c23)C1)C(=O)NC5=O [drawing 221] |
